Experimental data published in ChEMBL document CHEMBL6109064, “Functional and structural polypharmacology of indazole-based privileged ligands to tackle the undruggability of membrane transporters” (Eur J Med Chem, 2025).
Calls of active or inactive are those of the source. The rule behind the calls is not given here.

What was measured:
[1] = biological target: Multidrug resistance-associated protein 1 (Homo sapiens, UniProt P33527); assay: Inhibition of ABCC1 in human NCI-H69AR cells assessed as increase in rhodamine123 fluorescence intensity using rhodamine123 as tracer preincubated for 30 mins followed by rhodamine 123 addition and measured for 180 mins by flow cytometry; assay type: cell-based
Multidrug resistance-associated protein 1, sequence (P33527 whole entry): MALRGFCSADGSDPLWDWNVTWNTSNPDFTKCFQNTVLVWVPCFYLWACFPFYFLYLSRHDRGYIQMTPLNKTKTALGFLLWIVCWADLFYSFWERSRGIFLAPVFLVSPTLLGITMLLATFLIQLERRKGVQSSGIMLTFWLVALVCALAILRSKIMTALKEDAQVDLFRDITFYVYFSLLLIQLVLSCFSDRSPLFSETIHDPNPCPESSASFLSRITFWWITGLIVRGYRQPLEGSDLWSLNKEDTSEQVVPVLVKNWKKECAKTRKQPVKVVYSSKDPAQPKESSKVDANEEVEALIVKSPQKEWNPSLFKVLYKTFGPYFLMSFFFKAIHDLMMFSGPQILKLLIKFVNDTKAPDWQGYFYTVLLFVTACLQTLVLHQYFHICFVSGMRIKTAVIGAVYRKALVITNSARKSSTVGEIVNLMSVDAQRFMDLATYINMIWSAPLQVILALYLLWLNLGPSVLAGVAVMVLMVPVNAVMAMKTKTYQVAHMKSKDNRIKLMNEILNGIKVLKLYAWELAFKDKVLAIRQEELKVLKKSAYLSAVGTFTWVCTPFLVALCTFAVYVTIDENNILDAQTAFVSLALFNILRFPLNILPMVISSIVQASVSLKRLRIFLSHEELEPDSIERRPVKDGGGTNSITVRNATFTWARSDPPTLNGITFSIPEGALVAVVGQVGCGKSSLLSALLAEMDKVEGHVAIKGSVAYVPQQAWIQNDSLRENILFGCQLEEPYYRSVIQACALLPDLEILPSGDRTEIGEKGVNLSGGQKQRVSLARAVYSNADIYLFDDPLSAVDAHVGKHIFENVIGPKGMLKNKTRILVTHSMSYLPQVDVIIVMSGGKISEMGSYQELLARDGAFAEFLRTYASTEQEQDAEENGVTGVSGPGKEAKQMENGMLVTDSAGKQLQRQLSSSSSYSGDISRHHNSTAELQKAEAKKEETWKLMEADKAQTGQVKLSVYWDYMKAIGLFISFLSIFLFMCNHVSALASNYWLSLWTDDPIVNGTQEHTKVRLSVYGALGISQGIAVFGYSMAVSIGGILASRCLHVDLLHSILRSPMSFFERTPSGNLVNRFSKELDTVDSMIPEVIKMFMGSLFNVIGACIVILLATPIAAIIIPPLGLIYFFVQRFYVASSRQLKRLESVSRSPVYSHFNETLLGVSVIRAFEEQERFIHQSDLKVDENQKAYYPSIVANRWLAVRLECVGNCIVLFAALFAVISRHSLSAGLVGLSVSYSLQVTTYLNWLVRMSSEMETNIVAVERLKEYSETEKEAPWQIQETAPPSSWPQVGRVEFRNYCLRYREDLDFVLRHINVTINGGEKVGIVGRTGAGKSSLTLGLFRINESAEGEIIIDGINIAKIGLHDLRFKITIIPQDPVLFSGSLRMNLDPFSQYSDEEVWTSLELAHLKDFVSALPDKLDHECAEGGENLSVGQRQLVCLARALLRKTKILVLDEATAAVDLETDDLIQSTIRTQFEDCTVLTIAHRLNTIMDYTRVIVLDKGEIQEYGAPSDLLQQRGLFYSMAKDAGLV

[2] = biological target: Sodium-dependent serotonin transporter (Homo sapiens) (UniProt P31645); assay: Inhibition of SERT (unknown origin) expressed in HEK293 cells assessed as inhibition of MPP+ transport incubated for 5 mins by tandem mass spectrometry; assay type: cell-based
Sodium-dependent serotonin transporter (Homo sapiens), sequence (P31645 whole entry, looked up): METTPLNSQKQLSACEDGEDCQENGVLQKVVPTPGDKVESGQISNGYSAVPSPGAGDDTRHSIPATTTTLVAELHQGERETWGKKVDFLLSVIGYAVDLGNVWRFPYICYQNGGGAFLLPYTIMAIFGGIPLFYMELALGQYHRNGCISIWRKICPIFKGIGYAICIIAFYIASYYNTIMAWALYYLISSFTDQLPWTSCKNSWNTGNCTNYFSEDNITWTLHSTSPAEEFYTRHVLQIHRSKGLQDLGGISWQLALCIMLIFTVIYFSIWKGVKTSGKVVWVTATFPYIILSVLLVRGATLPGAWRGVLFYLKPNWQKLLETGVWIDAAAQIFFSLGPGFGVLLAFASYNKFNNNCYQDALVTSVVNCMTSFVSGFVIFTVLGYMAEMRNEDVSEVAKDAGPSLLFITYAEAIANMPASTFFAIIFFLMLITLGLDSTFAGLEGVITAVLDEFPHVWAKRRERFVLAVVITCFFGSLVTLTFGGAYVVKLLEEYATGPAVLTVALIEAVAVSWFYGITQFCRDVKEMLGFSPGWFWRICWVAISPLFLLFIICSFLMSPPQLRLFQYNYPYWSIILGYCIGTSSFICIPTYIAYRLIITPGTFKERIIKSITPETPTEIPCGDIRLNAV

[3] = biological target: T1, Solute carrier organic anion transporter family member 1B1 (Homo sapiens, UniProt Q9Y6L6); assay: Inhibition of OATP1B1 (unknown origin) transfected in human A-431 cells assessed as inhibition of DHPDS uptake preincubated for 5 mins followed by DHPDS addition and measured after 10 mins by fluorescence based analysis; assay type: cell-based
T1 sequence (Q9Y6L6 whole entry): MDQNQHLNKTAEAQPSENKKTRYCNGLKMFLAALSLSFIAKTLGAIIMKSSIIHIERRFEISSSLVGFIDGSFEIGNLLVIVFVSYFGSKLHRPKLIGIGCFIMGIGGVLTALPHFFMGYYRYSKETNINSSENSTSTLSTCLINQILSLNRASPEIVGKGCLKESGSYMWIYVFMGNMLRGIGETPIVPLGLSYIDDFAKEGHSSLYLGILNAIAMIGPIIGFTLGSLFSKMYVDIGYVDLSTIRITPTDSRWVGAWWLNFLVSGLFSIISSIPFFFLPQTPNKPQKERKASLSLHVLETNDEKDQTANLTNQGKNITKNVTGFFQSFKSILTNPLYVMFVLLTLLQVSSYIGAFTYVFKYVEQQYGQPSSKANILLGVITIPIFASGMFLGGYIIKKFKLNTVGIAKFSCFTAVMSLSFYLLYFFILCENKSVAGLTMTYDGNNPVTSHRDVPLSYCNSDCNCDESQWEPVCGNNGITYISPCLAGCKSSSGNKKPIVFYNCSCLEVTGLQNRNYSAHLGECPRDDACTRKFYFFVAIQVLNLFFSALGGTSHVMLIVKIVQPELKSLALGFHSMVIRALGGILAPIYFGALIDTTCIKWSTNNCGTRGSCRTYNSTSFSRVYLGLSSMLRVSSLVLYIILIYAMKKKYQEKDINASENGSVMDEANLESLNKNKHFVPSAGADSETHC

[4] = biological target: T2, ATP-binding cassette sub-family C member 10 (Homo sapiens, UniProt Q5T3U5); assay: Reversal of ABCC10 (unknown origin) -mediated multidrug resistance transfected in human HEK293 MRP7 cells assessed as increase in paclitaxel-mediated cytotoxicity incubated for 68 hrs in presence of paclitaxel by MTT assay; assay type: cell-based
T2 sequence (Q5T3U5 whole entry): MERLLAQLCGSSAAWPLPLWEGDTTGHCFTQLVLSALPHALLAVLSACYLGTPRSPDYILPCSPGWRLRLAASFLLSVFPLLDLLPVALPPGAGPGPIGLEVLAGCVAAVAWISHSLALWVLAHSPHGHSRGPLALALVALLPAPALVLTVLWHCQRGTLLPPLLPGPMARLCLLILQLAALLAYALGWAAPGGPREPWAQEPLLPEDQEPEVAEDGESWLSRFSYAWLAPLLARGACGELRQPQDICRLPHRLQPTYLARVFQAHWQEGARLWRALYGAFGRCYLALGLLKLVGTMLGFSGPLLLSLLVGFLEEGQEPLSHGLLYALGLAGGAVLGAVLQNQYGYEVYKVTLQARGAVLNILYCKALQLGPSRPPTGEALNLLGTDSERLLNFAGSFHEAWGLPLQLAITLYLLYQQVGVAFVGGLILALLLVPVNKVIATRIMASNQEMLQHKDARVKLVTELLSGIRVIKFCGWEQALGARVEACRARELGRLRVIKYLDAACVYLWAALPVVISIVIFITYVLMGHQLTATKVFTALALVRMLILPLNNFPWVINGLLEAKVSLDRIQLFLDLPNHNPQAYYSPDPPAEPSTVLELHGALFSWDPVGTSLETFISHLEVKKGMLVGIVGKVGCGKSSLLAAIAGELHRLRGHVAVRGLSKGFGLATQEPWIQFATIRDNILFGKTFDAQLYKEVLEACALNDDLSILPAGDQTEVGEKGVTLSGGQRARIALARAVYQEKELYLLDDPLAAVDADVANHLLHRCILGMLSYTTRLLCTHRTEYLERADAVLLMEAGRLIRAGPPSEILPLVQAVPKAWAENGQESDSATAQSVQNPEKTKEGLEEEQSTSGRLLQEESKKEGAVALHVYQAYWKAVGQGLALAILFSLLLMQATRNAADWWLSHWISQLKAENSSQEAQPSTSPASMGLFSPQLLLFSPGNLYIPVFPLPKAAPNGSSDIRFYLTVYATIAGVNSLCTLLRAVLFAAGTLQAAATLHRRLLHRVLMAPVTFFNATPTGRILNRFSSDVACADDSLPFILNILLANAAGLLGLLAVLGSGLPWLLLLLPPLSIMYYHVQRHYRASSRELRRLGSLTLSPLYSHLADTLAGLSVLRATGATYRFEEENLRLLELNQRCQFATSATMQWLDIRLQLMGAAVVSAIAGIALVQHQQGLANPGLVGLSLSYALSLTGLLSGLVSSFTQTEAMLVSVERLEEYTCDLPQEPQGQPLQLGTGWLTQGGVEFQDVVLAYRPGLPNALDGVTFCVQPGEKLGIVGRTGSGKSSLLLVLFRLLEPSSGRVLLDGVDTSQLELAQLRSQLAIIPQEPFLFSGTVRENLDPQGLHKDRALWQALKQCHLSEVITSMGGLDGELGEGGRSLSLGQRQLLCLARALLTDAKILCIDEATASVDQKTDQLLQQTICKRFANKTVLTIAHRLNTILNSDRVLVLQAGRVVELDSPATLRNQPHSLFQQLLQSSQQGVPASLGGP

[5] = Inhibition of ABCA1 (unknown origin) expressed in mouse J774.A1 cells assessed as inhibition of 25-NBD-cholesterol fluorescence intensity preincubated for 24 hrs followed by 25-NBD-cholesterol addition and measured after 48 hrs by flow cytometry; assay type: cell-based, Homo sapiens

SMILES	IC50 ([1]; read-out: IC50) [µM]	inhibition [2]	IC50 [3] [µM]	EC50 [4]	IC50 [5]	IC50 ([1]; nci-h69ar)	IC50 ([5]; read-out: IC50) [µM]
COc1cccc(NC(=O)c2nn(CC(=O)Nc3ccccc3OC)c3ccccc23)c1	3.79	inactive	5.66	Not_active	Not_active		
O=C(Cn1nc(C(=O)Nc2ccccn2)c2ccccc21)Nc1cc(Cl)ccc1Cl		inactive	16.8	Not_active		Not_active	13
O=C(Cn1nc(C(=O)Nc2cccnc2)c2ccccc21)Nc1ccc(Cl)cc1	2.9	inactive	17.9				4.7
COc1cccc(NC(=O)Cn2nc(C(=O)Nc3cccc(OC)c3)c3ccccc32)c1	2.66	inactive	4.96	Not_active	Not_active		
